The text below walks through data of patent US9211288B2 (priority 2012, dated 2015).

The test system of data set [1] is acetylcholine levels in ventral hippocampus. As to conditions: donepezil 1 mg/kg ip and vehicle; compared to vehicle+vehicle.
From the text: Adult, male, Wistar rats were used for the experiments. The rats were anesthetized before surgery. Each animal was placed in a stereotaxic frame (Kopf Instruments, USA) and an incision was made on the top of the skull. A microdialysis probe with a 4 mm^2 exposed surface (polyacrylnitril membrane, Brainlink, the Netherlands) was implanted into the ventral hippocampus. […] The probes were attached to the skull with stainless steel screws and dental cement. Experiments started after one day of recovery.
Vortioxetine HBr was prepared in 10% 2-hydroxypropyl-β-cyclodextrin at 0, 5 or 10 mg/ml.
After two hours of prestabilisation, samples (30 μl) were collected and stored in 20 mM formic acid and 0.04% ascorbic acid (10 μl).
The concentration of acetylcholine in the samples was determined by HLPC fitted with tandem mass spectroscopy (MS/MS) for detection using acetyl-β-methyl-choline as internal standard. Chromatographic separation was performed on a reversed phase Phenomenex Synergi Max-RP column (2.0×150 mm, particle size 4 μm) at 50° C. Components were separated using an isocratic flow of eluent A (20 mM ammonium acetate, 5% acetonitril and 0.3% trifluoroacetic acid) at a flow rate of 0.25 ml/min. […]
The average of three pre-administration samples was set to 100%. […] All post-administration samples were expressed as a percentage of basal level within the same subject. […]
Data set [2] is classed as in vivo. The conditions noted are these: rat. An excerpt: In addition, blood samples were taken from each animal to measure the plasma level of the active ingredients.
Data set [3] concerns acetylcholine levels in hippocampus. The data set can be described thus: Microdialysis: acetylcholine levels in ventral hippocampus of freely moving Sprague Dawley rats (Examples 3 and 4). The format is in vivo, rat.
From the text: Adult, male Sprague Dawley rats were used in the experiments. The rats were anesthetized before surgery. The animals were placed in a stereotaxic frame (Kopf instruments, USA), and CMA12 guide cannulas (CMA Microdialysis, Sweden) were implanted aiming into the ventral hippocampus. Coordinates for the tips of the probes were AP=−5.3 mm to bregma, lateral (ML)=−4.8 mm to midline and ventral=−8.0 mm to dura (Paxinos and Watson).
Galanthamine, the chemical name of which is (4aS,6R,8aS)-4a,5,9,10,11,12-hexahydro-3-methoxy-11-methyl-6H-benzofuro[3a,3,2-ef][2]benzazepin-6-ol, was administered as the HBr salt. Vortioxetine was administered as the HBr salt. Vortioxetine and galantamine were prepared in 0.9% saline. Vortioxetine was administered subcutaneously at 10 mg/kg and galantamine was administered subcutaneously at 0.3 mg/kg and 1.0 mg/kg.
The day before the experiment, a microdialysis probe (CMA/12, 4 mm, PAES, MWKO 100 kDa) was inserted into the respective guide cannula in the awake rats. […] At the day of the experiment, samples were collected in 30 min intervals prior to administration to define the baseline. The data is presented as percentage of baseline within the same animal. Significance is defined as p<0.05. Animals received treatments according to experimental protocol and samples were collected at 30 minutes intervals.
The concentration of acetylcholine in the samples was determined using a Waters Acquity HPLC system equipped with a Sunshell RP-Aqua 2.1×100 mm, 2.6 um particle column fitted with a Waters Quattro Premier XE triple quadrupole mass spectrometer operating in the MS/MS mode. Components were separated using an isocratic flow of eluent A (100 mM ammonium acetate in milliQ water).
Injection of galantamine was 60 minutes prior to the injection of vortioxetine.
Data set [4] relates to rats with scopolamine-induced memory impairment. The data set is described as follows: Novel object recognition task (NOR) in rats with scopolamine-induced memory impairment (Example 5). The format is in vivo, rat.
Method: In a habituation phase, rats are allowed to explore the test room environment and two objects which differ in shape, colour and texture. In the test phase, one of the objects is exchanged so that the rats are exposed to one novel object and one familiar object. The time spent exploring the novel and the familiar object is recorded following the administration of test compounds.
Sprague-Dawley rats were used
One day 1 and day 2 of the experiment the rats received two habituation sessions to the test room environment including two objects (familiar objects). Each session lasted 6 minutes. […] At the test day, five groups of rats received a third habituation test (familiarization trial) after which they were removed from the test apparatus and one of the objects was replaced with a novel object. Four hours later, the rats were put back in the test apparatus (test phase) and the time used exploring of the familiar and the novel object was recorded.
The numbers in parenthesis indicate the number of rats in each group
The conditions of data set [5]: plasma; cited from earlier work.
Data set [6] addresses T1, serotonin transporter (Rattus norvegicus, UniProt P31652).
T1 construct: The receptor occupancy in rats following administration of vortioxetine has been investigated; host or cells: rat, in vivo / ex vivo occupancy
The conditions noted are these: rats; vortioxetine dosed at 5-10 mg/kg; cited from earlier work.

The target of a further data set is T2, 5-HT3-receptor (Rattus norvegicus, UniProt P35563).
T2 construct: The receptor occupancy in rats following administration of vortioxetine has been investigated; host or cells: rat, in vivo / ex vivo occupancy
T2 sequence (P35563 24-483): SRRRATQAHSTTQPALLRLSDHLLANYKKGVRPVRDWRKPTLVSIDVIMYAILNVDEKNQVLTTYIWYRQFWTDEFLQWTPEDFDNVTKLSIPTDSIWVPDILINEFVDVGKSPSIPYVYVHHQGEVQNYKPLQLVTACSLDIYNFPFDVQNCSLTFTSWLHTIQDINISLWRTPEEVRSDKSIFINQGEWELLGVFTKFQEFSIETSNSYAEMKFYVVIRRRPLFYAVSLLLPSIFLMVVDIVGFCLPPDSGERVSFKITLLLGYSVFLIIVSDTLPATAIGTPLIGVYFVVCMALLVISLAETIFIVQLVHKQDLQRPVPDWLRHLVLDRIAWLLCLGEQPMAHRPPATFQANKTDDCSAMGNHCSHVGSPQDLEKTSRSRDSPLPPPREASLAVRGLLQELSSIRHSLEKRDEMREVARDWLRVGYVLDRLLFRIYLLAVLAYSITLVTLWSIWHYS
The conditions noted are these: rats; vortioxetine dosed at 5-10 mg/kg; cited from earlier work.

The target in another data set is T3, 5-HT1B-receptor (Rattus norvegicus, UniProt P28564).
T3 construct: The receptor occupancy in rats following administration of vortioxetine has been investigated; host or cells: rat, in vivo / ex vivo occupancy
The conditions noted are these: rats; vortioxetine dosed at 5-10 mg/kg; cited from earlier work.

In data set [7] the target is T4, serotonin transporter (Homo sapiens, UniProt P31645).
T4 construct: The serotonin transporter occupancy in humans was investigated; host or cells: human subjects, in vivo
As to conditions: humans, cited from earlier work.

For data set [8], the system named is patients suffering from MDD. The conditions noted are these: long-term study; cited from earlier work.
For data set [9], the system named is patients with major depressive disorder (MDD). As to conditions: cited from earlier work.

Read-outs that look alike come from different tables or passages of the source.

T4 sequence (P31645 whole entry): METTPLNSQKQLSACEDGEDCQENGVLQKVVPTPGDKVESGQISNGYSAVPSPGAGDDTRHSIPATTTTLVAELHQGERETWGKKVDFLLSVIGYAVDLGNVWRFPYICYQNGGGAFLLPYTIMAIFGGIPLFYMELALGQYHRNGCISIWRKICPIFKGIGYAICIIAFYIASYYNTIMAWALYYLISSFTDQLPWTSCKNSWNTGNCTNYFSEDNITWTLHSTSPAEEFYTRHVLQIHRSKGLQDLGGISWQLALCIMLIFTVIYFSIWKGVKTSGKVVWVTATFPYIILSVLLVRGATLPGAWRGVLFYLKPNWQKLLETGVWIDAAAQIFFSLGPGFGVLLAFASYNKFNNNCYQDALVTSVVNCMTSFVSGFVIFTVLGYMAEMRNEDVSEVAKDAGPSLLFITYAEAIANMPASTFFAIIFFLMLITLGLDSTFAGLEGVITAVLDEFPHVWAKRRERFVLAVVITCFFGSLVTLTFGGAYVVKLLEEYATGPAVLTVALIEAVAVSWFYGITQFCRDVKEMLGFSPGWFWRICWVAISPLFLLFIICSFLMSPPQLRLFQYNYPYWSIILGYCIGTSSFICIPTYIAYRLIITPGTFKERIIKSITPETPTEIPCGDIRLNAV
T1 sequence (P31652 whole entry): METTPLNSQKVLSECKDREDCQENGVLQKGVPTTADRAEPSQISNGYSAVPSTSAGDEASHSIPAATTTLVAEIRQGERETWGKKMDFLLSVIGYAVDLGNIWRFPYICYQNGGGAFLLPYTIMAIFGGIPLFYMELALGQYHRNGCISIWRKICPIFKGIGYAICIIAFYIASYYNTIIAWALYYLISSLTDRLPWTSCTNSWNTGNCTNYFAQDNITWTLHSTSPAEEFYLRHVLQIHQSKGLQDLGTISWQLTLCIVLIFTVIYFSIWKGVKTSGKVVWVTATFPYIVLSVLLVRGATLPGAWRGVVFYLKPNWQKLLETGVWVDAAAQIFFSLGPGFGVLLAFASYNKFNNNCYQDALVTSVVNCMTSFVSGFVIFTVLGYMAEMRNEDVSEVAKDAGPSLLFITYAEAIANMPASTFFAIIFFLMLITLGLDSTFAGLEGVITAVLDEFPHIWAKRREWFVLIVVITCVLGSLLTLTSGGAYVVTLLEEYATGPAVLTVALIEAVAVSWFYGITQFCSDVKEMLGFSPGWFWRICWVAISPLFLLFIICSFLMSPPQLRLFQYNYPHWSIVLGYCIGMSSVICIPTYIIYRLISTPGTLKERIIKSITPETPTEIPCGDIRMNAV
T3 sequence (P28564 whole entry): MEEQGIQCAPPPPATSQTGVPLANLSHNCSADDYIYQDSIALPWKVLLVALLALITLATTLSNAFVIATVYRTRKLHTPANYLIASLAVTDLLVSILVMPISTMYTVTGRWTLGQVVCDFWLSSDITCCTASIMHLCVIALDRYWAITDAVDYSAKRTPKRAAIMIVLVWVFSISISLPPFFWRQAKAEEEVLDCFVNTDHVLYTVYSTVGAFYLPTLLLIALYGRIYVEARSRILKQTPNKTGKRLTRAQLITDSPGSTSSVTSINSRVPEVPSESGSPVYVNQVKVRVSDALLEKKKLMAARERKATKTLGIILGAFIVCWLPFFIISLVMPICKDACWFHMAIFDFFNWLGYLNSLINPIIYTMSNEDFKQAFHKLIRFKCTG

`COc1cc2c(cc1OC)C(=O)C(CC1CCN(Cc3ccccc3)CC1)C2` (stereo not drawn) [Donepezil]: the “acetylcholine levels in ventral hippocampus” value in [1] is recorded as “significantly increased”.

For the compound `Cc1ccc(Sc2ccccc2N2CCNCC2)c(C)c1` [Vortioxetine, 1-[2-(2,4-dimethyl-phenylsulfanyl)-phenyl]-piperazine], the Vortioxetine in plasma in data set [2] (vortioxetine 10 mg/kg sc + donepezil 0.3 mg/kg ip) and in data set [2] (vortioxetine 10 mg/kg sc + donepezil 1 mg/kg ip) was 317 ng/mL each time. Further, the “acetylcholine levels in hippocampus” value in data set [3] (vortioxetine 10 mg/kg sc) was “significant increase”. Further, the “reversal of scopolamine-induced memory impairment (recognition index, RI)” value in data set [4] (scopolamine 0.5 mg/kg + vortioxetine 5 mg/kg ip 20 minutes prior to familiarization trial) is given as “neither vortioxetine at 5 mg/kg nor donepezil at 0.5 mg/kg is able to reverse this impairment”. Further, the half-life in humans result in [5] is recorded as “approximately 57 hours”. The “occupancy at serotonin transporter” value on serotonin transporter [6] is reported as “almost full occupancy”. Also, the “occupancy at 5-HT3-receptor” value on 5-HT3-receptor was “almost full occupancy”. In addition, on 5-HT1B-receptor, the “occupancy at 5-HT1B-receptor” value is given as “almost full occupancy”. The serotonin transporter occupancy was 51% at serotonin transporter [7] (5 mg/day), 63% at serotonin transporter [7] (10 mg/day) and 90% on serotonin transporter [7] (20 mg/day). Besides, the prevention of relapse entry in [8] is “effective in preventing relapse”. Moreover, the “changes in clinical laboratory results, vital signs, weight, or ECG parameters” value in [9] (human, in vivo) was “no clinically relevant changes”. Moreover, in data set [9] (patients with MDD, six weeks), the “treatment of depressive and anxious symptoms versus placebo” value is recorded as “separates significantly from placebo”.

In the case of `COc1ccc2c3c1O[C@H]1C[C@@H](O)C=C[C@@]31CCN(C)C2` [galantamine, (4aS,6R,8aS)-4a,5,9,10,11,12-hexahydro-3-methoxy-11-methyl-6H-benzofuro[3a,3,2-ef][2]benzazepin-6-ol], the “acetylcholine levels in hippocampus” value in data set [3] (galantamine 0.3 and 1.0 mg/kg sc and vehicle) is on record as “dose dependent, significant increase”.

As to `CCN(C)C(=O)Oc1cccc([C@H](C)N(C)C)c1` [rivastigmine, (S)—N-ethyl-N-methyl-3-[1-(dimethylamino)ethyl]-phenyl carbamate], the “acetylcholine levels in hippocampus” value in data set [3] (rivastigmine 0.2 and 0.6 mg/kg sc and vehicle) is “dose-dependently and significantly increases”.

In the case of `CN1[C@@H]2C[C@@H](OC(=O)[C@H](CO)c3ccccc3)C[C@H]1[C@@H]1O[C@@H]12` [scopolamine], the “effect on short-term memory (recognition index, RI)” value in data set [4] (scopolamine 0.5 mg/kg ip 40 minutes prior to familiarization trial, versus saline, p<0.001) is listed as “impairs short-term memory”.
